Measurements: paper PMC5133935, “Hydrostatin-TL1, an Anti-Inflammatory Active Peptide from the Venom Gland of Hydrophis cyanocinctus in the South China Sea” (International Journal of Molecular Sciences, 2016)
Entries after “also recorded” stand apart in the source; their conditions may differ. No end group written: not given here.

Legend:
L929 cells [1] = assay: MTT assay, protection from TNF-α-mediated cytotoxicity; type: cell-based, mouse; settings: H-TL1 1 to 1000 nM; hrTNF-α 20 ng/mL + 0.2 μg/mL actinomycin D; 18–20 h, 37 °C; MTT 490 nm; n = 5
Method: (§1) We used the L929 cell line, which is commonly chosen by researchers, to evaluate the effects of H-TL1 on TNF-α-mediated cytotoxicity. The cells were treated with TNF-α and 0.2 μg/mL actinomycin D in the presence of graded concentrations of H-TL1. Cell viability was evaluated using MTT assay. […] Furthermore, H-TL1 was not cytotoxic against L929 cells at 100 μM (data not shown), which far exceeds the concentration of H-TL1 used in the in vitro assays.
(§2) The H. cyanocinctus specimens were captured during September 2005 in the South China Sea near Guangdong Province, People’s Republic of China. After collection, the snakes were killed, and the venom glands were isolated and immediately frozen in liquid nitrogen until use. HEK-293 human embryonic kidney and L929 mouse fibroblast cell lines were obtained from ATCC and cultured in Dulbecco’s modified Eagle’s medium (DMEM, Sigma-Aldrich, St. Louis, MO, USA) containing 10% (v/v) heat-inactivated fetal bovine serum (FBS, Gibco, BRL, Grand Island, NY, USA) at 37 °C in an atmosphere of 5% CO2. […]
For MTT cell viability assay, L929 cells were seeded onto a 96-well plate and cultured for 12 h. […] Following incubation at 37 °C for 18–20 h, MTT solution was added, followed by incubation at 37 °C for 4 h, and then the absorbance was determined at 490 nm. […]

L929 cells [2] = type: cell-based, mouse; settings: H-TL1 100 μM; data not shown
Method: as §1
as §2, with “CO2. The BLT5403 E. coli strain (used as the phage host strain) was from Novagen (Merck) and was cultured at 37 °C for propagation. The specific pathogen-free (SPF) male BALB/c and C57BL/6 mice (both 6–8 weeks old), weighing 20 ± 2 g were purchased from Shanghai SLAC Laboratory Animal Co., Ltd. (Shanghai, China).” for “CO2.”

[3] = tested on: IL-1β-induced phosphorylation of IκB; assay: Western blot, IL-1β-induced phosphorylation of IκB; type: cell-based; settings: IL-1β as activator of NF-κB
Description: The NF-κB and MAPKs pathways are key signaling pathways of TNF-α-mediated inflammation. Therefore, we analyzed the mechanisms underlying H-TL1-induced inhibition of TNF-α-mediated inflammation by Western blotting in HEK-293 cells. […] To identify the specific effects of H-TL1 on TNF-α downstream signaling, we induced IL-1β as a potent activator of NF-κB that is specific to that pathway.
For Western blotting, the cell or tissue specimen extracts were resolved in a 10% SDS-PAGE gel, and then the separated proteins were transferred to a nitrocellulose filter membrane. The antigens were detected by using specific antibodies against total and phosphorylated IκB, p38, ERK, and JNK followed by incubation with the respective secondary antibodies. GAPDH was simultaneously detected as the control to compare the protein loading in each lane. The mouse monoclonal anti-IκB, mouse monoclonal anti-p-IκB (Ser32/36), rabbit monoclonal anti-ERK, and rabbit monoclonal anti-p-ERK (Thr202/Tyr204) antibodies were from Cell Signaling Technologies (Beverly, MA, USA). The mouse polyclonal anti-p-p38 (Thr180/Tyr182), rabbit polyclonal anti-p38, rabbit monoclonal anti-p-JNK (Thr183/Tyr185), and mouse monoclonal anti-JNK antibodies were from Thermo Fisher Scientific (Rockford, IL, USA). […]

[4] = tested on: HEK-293 cells, TNF-α-induced expression of pro-inflammatory factors; assay: Real-time PCR, TNF-α-induced gene expression in HEK-293 cells; type: cell-based, human; settings: TNF-α 20 ng/mL, 2^−ΔΔCt, GAPDH, n = 3
Description: NF-κB activation through TNF-α/TNFR interactions upregulates the expression of chemokines and adhesion factors such as IL-8, TNF-α, ICAM-1, and VCAM-1 [25, 26]. To determine whether H-TL1 inhibits TNF-α-mediated pro-inflammatory activity, we further assessed the inhibitory activity of H-TL1 on TNF-α-induced expression of these genes in HEK-293 cells.
The H. cyanocinctus specimens were captured during September 2005 in the South China Sea near Guangdong Province, People’s Republic of China. After collection, the snakes were killed, and the venom glands were isolated and immediately frozen in liquid nitrogen until use. HEK-293 human embryonic kidney and L929 mouse fibroblast cell lines were obtained from ATCC and cultured in Dulbecco’s modified Eagle’s medium (DMEM, Sigma-Aldrich, St. Louis, MO, USA) containing 10% (v/v) heat-inactivated fetal bovine serum (FBS, Gibco, BRL, Grand Island, NY, USA) at 37 °C in an atmosphere of 5% CO2. The BLT5403 E. coli strain (used as the phage host strain) was from Novagen (Merck) and was cultured at 37 °C for propagation. The specific pathogen-free (SPF) male BALB/c and C57BL/6 mice (both 6–8 weeks old), weighing 20 ± 2 g were purchased from Shanghai SLAC Laboratory Animal Co., Ltd. (Shanghai, China). The mice were housed in animal facilities with 50% humidity under a 12-h light-dark cycle, fed a standard pellet diet, and provided with tap water ad libitum. The animal experimental protocols in this research, including venom gland isolation and the mouse study, were approved by the Animal Care and Use Committee of the Second Military Medical University.
Total RNA was extracted from colon tissue specimens or cells using Trizol reagent (Takara) according to the manufacturer’s instructions and was then reverse transcribed using random primers. Real-time PCR was performed on a StepOne Real-Time PCR System (Applied Biosystems, Foster City, CA, USA) to analyze the mRNA expression levels of IL-8, TNF-α, IL-1β, IL-6, VCAM-1, and ICAM-1. The relative fold changes of target gene expression were comparatively quantified by the 2^−ΔΔCt method. GAPDH was chosen as the internal control gene, and samples without treatment were designated as the comparing reference. Primers used in this study were based on published sequences.

[5] = tested on: DSS-induced inflammation of colonic mucosa, BALB/c mice; assay: Colon histopathology in DSS-induced colitis; type: in vivo, mouse; settings: for colon morphology (H&E): H&E 40×
Method: To induce colitis, 6–8 week old male BALB/c mice were administered 2.5% DSS solution in their drinking water for 7–8 consecutive days, ad libitum. Importantly, 30–40 kDa DSS was used to establish the animal model in this study because it is known to induce more severe colitis than 5 and 500 kDa DSS [37]. The mice were concomitantly administered H-TL1 (0.5 or 1 mg/kg) once daily for 7–8 consecutive days by intraperitoneal injection. Establishment of the DSS-induced colitis was evidenced by an increase in DAI, with associated weight loss, loose stool consistency, and presence of blood in the feces. DAI was monitored during the entire experiment and was assessed according to the method described in Table 1.
The colonic tissue samples were fixed in 4% neutral formalin, dehydrated with increasing concentrations of ethanol, embedded in paraffin, and subsequently cut into 5-μm thick sections, which were mounted on slides, cleared, hydrated, and stained with hematoxylin and eosin (H&E). Histological grading was assessed according to previously described criteria (Table 2), and the scoring criteria used were similar to those described previously.

[6] = tested on: NF-κB and MAPK activation in colonic tissue of DSS mice; assay: Western blot of colonic tissue in DSS-induced colitis; type: in vivo, mouse; settings: H-TL1 vs. vehicle, p-ERK (Thr202/Tyr204), p-JNK (Thr183/Tyr185), p-IκB (Ser32/36)
Method: For Western blotting, the cell or tissue specimen extracts were resolved in a 10% SDS-PAGE gel, and then the separated proteins were transferred to a nitrocellulose filter membrane. The antigens were detected by using specific antibodies against total and phosphorylated IκB, p38, ERK, and JNK followed by incubation with the respective secondary antibodies. GAPDH was simultaneously detected as the control to compare the protein loading in each lane. The mouse monoclonal anti-IκB, mouse monoclonal anti-p-IκB (Ser32/36), rabbit monoclonal anti-ERK, and rabbit monoclonal anti-p-ERK (Thr202/Tyr204) antibodies were from Cell Signaling Technologies (Beverly, MA, USA). The mouse polyclonal anti-p-p38 (Thr180/Tyr182), rabbit polyclonal anti-p38, rabbit monoclonal anti-p-JNK (Thr183/Tyr185), and mouse monoclonal anti-JNK antibodies were from Thermo Fisher Scientific (Rockford, IL, USA). The rabbit monoclonal anti-GAPDH antibody was from Santa Cruz Biotechnology (Santa Cruz, CA, USA), and the fluorescent-labeled secondary antibodies were from Li-COR Biosciences (Lincoln, NE, USA).
To induce colitis, 6–8 week old male BALB/c mice were administered 2.5% DSS solution in their drinking water for 7–8 consecutive days, ad libitum. […] DAI was monitored during the entire experiment and was assessed according to the method described in Table 1.

ATSKPSLKC-OH [H-TL1]
inhibition of TNF-α-induced L929 cell death (L929 cells [1]): inhibited TNF-α-induced L929 cell death in a concentration-dependent manner; also recorded: improved survival in TNF-α-treated L929 cells
cytotoxicity against L929 cells (L929 cells [2]): not cytotoxic
inhibition of IL-1β-induced phosphorylation of IκB [3]: failed to inhibit the phosphorylation of IκB induced by IL-1β
TNF-α-induced expression of ICAM-1 [4]: suppresses TNF-α-induced expression of IL-8, TNF-α, ICAM-1, and VCAM-1 in a concentration-dependent manner
TNF-α-induced expression of IL-8 [4]: suppresses TNF-α-induced expression of IL-8, TNF-α, ICAM-1, and VCAM-1 in a concentration-dependent manner
TNF-α-induced expression of TNF-α [4]: suppresses TNF-α-induced expression of IL-8, TNF-α, ICAM-1, and VCAM-1 in a concentration-dependent manner
TNF-α-induced expression of VCAM-1 [4]: suppresses TNF-α-induced expression of IL-8, TNF-α, ICAM-1, and VCAM-1 in a concentration-dependent manner
colon morphology (H&E) ([5]; H-TL1 0.5 mg/kg, 0.5 mg/kg): serious colonic damage that was comparable to that of the DSS + vehicle-treated mice; also recorded: had little effect on DSS-induced colonic inflammation
colon morphology (H&E) ([5]; H-TL1 1 mg/kg, 1 mg/kg): remarkably alleviated; also recorded: alleviated DSS-induced colonic inflammation
total histological score ([5]; H-TL1 1 mg/kg, n = 8, ** p < 0.01 vs. DSS only group): significantly reduces DSS-induced inflammation of colonic mucosa
activation (phosphorylation) of JNK, ERK, and IκB in colonic tissue [6]: JNK, ERK, and IκB were activated; however, this effect was inhibited by H-TL1 treatment
